# Experimental data reported in patent US9579325B2, “Modulators of TNF-α signaling” (Genzyme Corporation, priority 2000, dated 2017).
# Test system: L929 cells
# Test: TNF High Throughput Screen (TNF-α driven apoptosis assay)
# Format: cell-based, mouse
# Conditions: Mus musculus, compound at 1 μM, human TNF-α + actinomycin D, read-out: TNFα % Inh. @ 1 μM
# Description: (§1) Description of Table V: The results shown in Table V were obtained using the TNF-α assays performed as described in the protocols entitled “Method for TNF High Throughput Screen” and “Method for VCAM High Throughput Screen”, which are detailed below. These assays measure a cellular response to TNF-α stimulation, and the data published in the table are expressed as percentage inhibitions. Percentage inhibition is computed on a scale of 0 to 100% where 0 percent inhibition means the compound has no effect in the assay (the response is indistinguishable from TNF-α treatment alone), and 100% inhibition means that when the compound is present at the stated concentration, the response in the assay is the same as if TNF-α were not added. These two assays measure two different outcomes of TNF-α treatment, cell death and Vascular Cell Adhesion Molecule (VCAM) expression, and capture two of TNF-α's many biological effects. TNF-α induced apoptosis is a mechanism by which TNF-α production during immune/inflammatory responses can lead to direct cellular and tissue damage. TNF-α VCAM expression in endothelial cells is a response that allows leukocytes to leave the blood and enter a site of immune/inflammatory response. Both of these activities could lead to pathology in immune/inflammatory diseases. In the first column of the table, the percentage inhibition of the TNF-α driven apoptosis assay when the compounds are tested at 1 μM concentration is presented. The second column in the table lists the IC50 for the compound, a standard measure using a dilution series in the assay, and fitting a sigmoidal curve to the resulting dose-response curve. The IC50 is the concentration (derived analytically from the sigmoidal function) at which the compound would inhibit 50% of the response in the assay. The third and fourth column list the corresponding analysis for the TNF-α driven VCAM assay. In Table VI, data corresponding to the data in column 1 of Table V is shown, with human cells replacing the mouse cells used in the high throughput screen. […] As a consequence, the compounds will have use in treating more than one TNF-α mediated condition, and may be selected according to the manner in which the condition manifests. This corresponds to the use of these compounds in the treatment of human disease.
# TNF High Throughput Screen.
# • 1. Plate 4×10^4 L929 cells in 100 μl of complete EMEM in Costar 96 well plates in PM. • 2. The next day, pretreat with compound, inhibitor and control vehicle for 2 hours. • 3. After 2 hours pretreatment, add 10 μl 5 ng/ml human TNF-α and actinomycin D (40 μg/ml final concentration). • 4. Incubate overnight. • 5. In AM, remove supernatant. • 6. Wash on a plate washer (0.9% NaCl). • 7. Add 100 μl Crystal Violet 0.1% in 20% ETOH. • 8. Incubate at RT for 10 minutes. • 9. Wash on plate washer. • 10. Air dry wells at 37° C. • 11. Add 100 μl of methanol to each well. • 12. Shake plates on orbital shaker and read at 595 nm on plate reader. VCAM High Throughput Screen: Protocol: • 1. Plate Primary human umbilical vein endothelial cells at 1.8×10^4 cells/well in a 96-well tissue culture plate. • 2. Return Plates to 37° C. incubator for 48-72 hours before assay. • 3. On assay day, aspirate wells and add 1804, of endothelial growth cell medium (EGM) to each well. • 4. Add Compound to each well. • 5. Shake plates for 3 minutes. • 6. Incubate plate for 1 hour at 37° C. • 7. Add Tumor Necrosis Factor (TNF) at 1.0 ng/ml final concentration. • 8. Shake plates for 3 minutes. • 9. Incubate plate for 2 hours at 37° C. • 10. Remove plate from incubator and wash plate 3 times with phosphate buffered saline (PBS) using a plate washer. • 11. Add anti-VCAM antibody at 0.5 μg/ml final concentration. • 12. Incubate at 4° C. overnight. • 13. Wash 3 times with PBS on plate washer. • 14. Add goat anti-mouse horseradish peroxidase conjugate. • 15. Incubate at room temperature for one hour. • 16. Wash 3 times with PBS on plate washer. • 17. […]
row,SMILES,inhibition at 1 µM [%]
1,COc1ccc(CCNC(=O)C(c2cccc(C#N)c2)N(CCc2c[nH]cn2)C(=O)Cc2c[nH]c3ccccc23)cc1 (stereo not drawn) [Compound 77],54
2,COc1ccc(CCNC(=O)C(c2cccc(C#N)c2)N(CCc2c[nH]cn2)C(=O)Cc2c[nH]c3ccc(Br)cc23)cc1 (stereo not drawn) [Compound 78],60
3,COc1ccc(CCNC(=O)C(c2cccc(C#N)c2)N(CCc2c[nH]cn2)C(=O)c2cccc(Cl)c2)cc1 (stereo not drawn) [Compound 79],62
4,N#Cc1cccc(C(C(=O)NCC(c2ccccc2)c2ccccc2)N(CCc2c[nH]cn2)C(=O)c2cnc3ccccc3n2)c1 (stereo not drawn) [Compound 80],53
5,N#Cc1cccc(C(C(=O)NCC(c2ccccc2)c2ccccc2)N(CCc2c[nH]cn2)C(=O)c2c[nH]nc2N)c1 (stereo not drawn) [Compound 81],50
6,N#Cc1cccc(C(C(=O)NCC(c2ccccc2)c2ccccc2)N(CCc2c[nH]cn2)C(=O)C(O)Cc2c[nH]c3ccccc23)c1 (stereo not drawn) [Compound 82],55
7,N#Cc1cccc(C(C(=O)NCC(c2ccccc2)c2ccccc2)N(CCc2c[nH]cn2)C(=O)c2cccc(F)c2)c1 (stereo not drawn) [Compound 83],56
8,N#Cc1cccc(C(C(=O)NCC(c2ccccc2)c2ccccc2)N(CCc2c[nH]cn2)C(=O)CCCc2c[nH]c3ccccc23)c1 (stereo not drawn) [Compound 84],52
9,N#Cc1cccc(C(C(=O)NCC(c2ccccc2)c2ccccc2)N(CCc2c[nH]cn2)C(=O)Cc2c[nH]c3ccc(Br)cc23)c1 (stereo not drawn) [Compound 85],52
10,COc1cccc(C(=O)N(CCc2c[nH]cn2)C(C(=O)NCC(c2ccccc2)c2ccccc2)c2cccc(C#N)c2)c1 (stereo not drawn) [Compound 86],53
11,N#Cc1cccc(C(C(=O)NC(c2ccccc2)c2ccccc2)N(CCc2c[nH]cn2)C(=O)C(O)c2ccccc2)c1 (stereo not drawn) [Compound 87],50
12,N#Cc1cccc(C(C(=O)NC(c2ccccc2)c2ccccc2)N(CCc2c[nH]cn2)C(=O)c2ccccc2-c2ccccc2)c1 (stereo not drawn) [Compound 88],53
13,N#Cc1cccc(C(C(=O)NC(c2ccccc2)c2ccccc2)N(CCc2c[nH]cn2)C(=O)c2ccccc2Oc2ccccc2)c1 (stereo not drawn) [Compound 89],56
14,N#Cc1cccc(C(C(=O)NC(c2ccccc2)c2ccccc2)N(CCc2c[nH]cn2)C(=O)c2cccs2)c1 (stereo not drawn) [Compound 90],51
15,N#Cc1cccc(C(C(=O)NCCC(c2ccccc2)c2ccccc2)N(CCc2c[nH]cn2)C(=O)c2ccccc2C(=O)c2ccc(Cl)cc2)c1 (stereo not drawn) [Compound 91],71
16,COc1ccc(CCNC(=O)C(c2cccc(C#N)c2)N(CCc2c[nH]cn2)C(=O)C(C)C)cc1 (stereo not drawn) [Compound 92],52

# Same assay, conditions: Mus musculus, human TNF-α + actinomycin D, read-out: TNFα IC50
row,SMILES,IC50 [nM]
1,COc1ccc(C(C(=O)NCC(c2ccccc2)c2ccccc2)N(CCc2c[nH]cn2)C(=O)c2ccccc2C(=O)c2ccccc2)cc1C (stereo not drawn) [Compound 42],779
2,"Cc1nn(-c2nccc(-c3ccccn3)n2)c(C)c1Oc1ccc(C(C)C)cc1 [Compound 97, 2-[4-(4-Isopropyl-phenoxy)-3,5-dimethyl-pyrazol-1-yl]-4-pyridin-2-yl-pyrimidine]",397
3,"Cc1nn(-c2nccc(-c3ccccn3)n2)c(C)c1Oc1ccc(CN2CCN(Cc3ccccc3)CC2)cc1 [Compound 104, 2-{4-[4-(4-Benzyl-piperazin-1-ylmethyl)-phenoxy]-3,5-dimethyl-pyrazol-1-yl}-4-pyridin-2-yl-pyrimidine]",50
4,"Nc1nc(-c2ccccn2)nc(-n2nc(-c3ccc(Cl)cc3)nc2Cc2ccccc2)n1 [Compound 133, 4-[5-Benzyl-3-(4-chloro-phenyl)-[1,2,4]triazol-1-yl]-6-pyridin-2-yl-[1,3,5]triazin-2-ylamine]",19500
5,"Cc1nn(-c2ncnc(-c3ccccn3)n2)c(C)c1Sc1ccc(Cl)cc1 [Compound 141, 2-[4-(4-Chloro-phenylsulfanyl)-3,5-dimethyl-pyrazol-1-yl]-4-pyridin-2-yl-[1,3,5]triazine]",1.1
6,"Cc1nn(-c2nc(N)nc(-c3ccccn3)n2)c(C)c1Cc1ccccc1 [Compound 142, 4-(4-Benzyl-3,5-dimethyl-pyrazol-1-yl)-6-pyridin-2-yl-[1,3,5]triazin-2-ylamine]",152
7,"CC1=NN(c2nccc(-c3ccccn3)n2)C(=O)C1Sc1ccc(Cl)cc1 (stereo not drawn) [Compound 147, 4-(4-Chloro-phenylsulfanyl)-5-methyl-2-(4-pyridin-2-yl-pyrimidin-2-yl)-2,4-dihydro-pyrazol-3-one]",734
8,"COc1c(Sc2ccc(Cl)cc2)c(C)nn1-c1nccc(-c2ccccn2)n1 [Compound 148, 2-[4-(4-Chloro-phenylsulfanyl)-5-methoxy-3-methyl-pyrazol-1-yl]-4-pyridin-2-yl-pyrimidine]",32100

# Same assay, conditions: human TNF-α + actinomycin D, read-out: TNFα IC50
row,SMILES,IC50 [nM]
1,"Cc1nn(-c2nc(N)nc(-c3ccccn3)n2)c(C)c1CCCc1ccccc1 [Compound 144, 4-[3,5-Dimethyl-4-(3-phenyl-propyl)-pyrazol-1-yl]-6-pyridin-2-yl-[1,3,5]triazin-2-lyamine]",15

# Test system: Vascular Cell Adhesion Molecule (VCAM) expression in primary human umbilical vein endothelial cells
# Test: VCAM High Throughput Screen (TNF-α driven VCAM expression)
# Format: cell-based
# Conditions: HUVEC, TNF 1.0 ng/ml
# Description: as §1
# • 1. Plate 4×10^4 L929 cells in 100 μl of complete EMEM in Costar 96 well plates in PM. • 2. The next day, pretreat with compound, inhibitor and control vehicle for 2 hours. • 3. After 2 hours pretreatment, add 10 μl 5 ng/ml human TNF-α and actinomycin D (40 μg/ml final concentration). • 4. Incubate overnight. • 5. In AM, remove supernatant. • 6. Wash on a plate washer (0.9% NaCl). • 7. […] Shake plates on orbital shaker and read at 595 nm on plate reader. […]
row,IC50 [nM],SMILES
1,16000,COc1ccc(C(C(=O)NCC(c2ccccc2)c2ccccc2)N(CCc2c[nH]cn2)C(=O)c2ccccc2C(=O)c2ccccc2)cc1C (stereo not drawn) [Compound 42]
2,13400,"Cc1nn(-c2nccc(-c3ccccn3)n2)c(C)c1S(=O)(=O)Cc1ccc(Cl)cc1 [Compound 124, 2-[4-(4-Chloro-phenylmethanesulfonyl)-3,5-dimethyl-pyrazol-1-yl]-4-pyridin-2-yl-pyrimidine]"
